What was measured:
[1] = target: T1, hP2X3 (human Purinergic P2X receptors subtype 3), clone B (Homo sapiens, UniProt P56373); experiment: hP2X3 FLIPR calcium (Fluo-4) antagonist assay, clone B; conditions: Human P2X3 FLIPR Clone B IC50 (nM), RLE cells expressing hP2X3 clone B (NM_002559); agonist 500 nM α,β-methylene-ATP
T1 sequence (P56373 1-397): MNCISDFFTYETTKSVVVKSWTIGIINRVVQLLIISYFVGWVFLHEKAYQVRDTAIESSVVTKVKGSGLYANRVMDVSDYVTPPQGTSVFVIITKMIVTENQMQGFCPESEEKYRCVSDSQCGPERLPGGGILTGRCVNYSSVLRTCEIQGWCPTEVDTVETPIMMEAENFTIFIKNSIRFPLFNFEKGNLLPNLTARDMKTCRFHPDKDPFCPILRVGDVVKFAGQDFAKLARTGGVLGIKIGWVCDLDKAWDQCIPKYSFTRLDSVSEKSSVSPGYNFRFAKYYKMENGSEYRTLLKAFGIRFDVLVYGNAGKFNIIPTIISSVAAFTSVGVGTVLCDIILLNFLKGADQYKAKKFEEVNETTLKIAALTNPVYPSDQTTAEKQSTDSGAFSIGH

[2] = target: T2, rat P2X2/3 (rat P2X3 co-expressed with rat P2X2) (Rattus norvegicus, UniProt P49653+P49654); experiment: rat P2X2/3 FLIPR calcium (Fluo-4) antagonist assay; conditions: Rat P2X2/3 FLIPR Mean IC50 (nM), HEK-TREX cells, tetracycline-induced rat P2X3 with constitutive rat P2X2; agonist 500 nM α,β-methylene-ATP
T2 sequence (P49654 1-397): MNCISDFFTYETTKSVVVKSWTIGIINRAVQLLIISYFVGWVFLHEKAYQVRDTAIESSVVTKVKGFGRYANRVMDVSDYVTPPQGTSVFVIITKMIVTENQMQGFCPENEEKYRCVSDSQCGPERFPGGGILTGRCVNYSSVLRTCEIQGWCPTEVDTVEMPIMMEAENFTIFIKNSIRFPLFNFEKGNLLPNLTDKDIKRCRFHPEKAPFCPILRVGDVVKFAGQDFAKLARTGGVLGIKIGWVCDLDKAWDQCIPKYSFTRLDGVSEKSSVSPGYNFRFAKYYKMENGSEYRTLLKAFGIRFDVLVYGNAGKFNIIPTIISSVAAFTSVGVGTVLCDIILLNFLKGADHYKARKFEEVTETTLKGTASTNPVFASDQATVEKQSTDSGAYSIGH
T2 sequence (P49653 1-472): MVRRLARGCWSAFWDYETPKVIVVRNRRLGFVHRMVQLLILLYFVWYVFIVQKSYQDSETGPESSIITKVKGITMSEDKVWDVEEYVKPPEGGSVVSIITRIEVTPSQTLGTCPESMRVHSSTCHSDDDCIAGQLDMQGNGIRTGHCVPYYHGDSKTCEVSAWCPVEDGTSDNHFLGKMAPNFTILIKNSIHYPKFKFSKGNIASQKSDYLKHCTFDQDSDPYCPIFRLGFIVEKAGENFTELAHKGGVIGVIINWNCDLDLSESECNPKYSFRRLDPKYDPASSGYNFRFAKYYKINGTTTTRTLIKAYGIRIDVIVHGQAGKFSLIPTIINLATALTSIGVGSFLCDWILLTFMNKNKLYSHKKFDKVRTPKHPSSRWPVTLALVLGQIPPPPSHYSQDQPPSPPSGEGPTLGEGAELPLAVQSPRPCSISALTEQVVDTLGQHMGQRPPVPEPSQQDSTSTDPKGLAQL

SMILES	IC50 [1] [nM]	IC50 [2] [nM]
CC(=O)N1CCN(c2nc(NC(C)(C)Cc3ccc(F)cc3)c3c(n2)C(=O)N(C(C)C)C3)CC1 [Example 14, 2-(4-acetylpiperazin-1-yl)-4-{[2-(4-fluorophenyl)-1,1-dimethylethyl]amino}-6-isopropyl-5,6-dihydro-7H-pyrrolo[3,4-d]pyrimidin-7-one]	110	18500
CC(=O)N1CCN(c2nc3c(c(N4CCCC4Cc4ccc(C)cc4)n2)CN(C(C)C)C3=O)CC1 (centres unmarked) [Example 47, 2-(4-acetylpiperazin-1-yl)-6-isopropyl-4-[2-(4-methylbenzyl)pyrrolidin-1-yl]-5,6-dihydro-7H-pyrrolo[3,4-d]pyrimidin-7-one]	130	2680
CC(=O)N1CCN(c2nc(N[C@H](C)c3ccc(OC(F)F)cc3)c3c(n2)C(=O)N(C(C)C)C3)CC1 [Example 114, 2-(4-acetylpiperazin-1-yl)-4-({(1R)-1-[4-(difluoromethoxy)phenyl]ethyl}amino)-6-isopropyl-5,6-dihydro-7H-pyrrolo[3,4-d]pyrimidin-7-one]	71	3300
CC(=O)N1CCN(c2nc3c(c(N4CCC[C@@H]4Cc4ccccc4)n2)CN(C(C)C)C3=O)CC1 [Example 116, 2-(4-acetylpiperazin-1-yl)-4-[(2R)-2-benzylpyrrolidin-1-yl]-6-isopropyl-5,6-dihydro-7H-pyrrolo[3,4-d]pyrimidin-7-one]	57	10300
CC(C)N1Cc2c(NC3c4cccnc4CCc4c(F)cccc43)nc(N(C)CCN(C)C)nc2C1=O (centres unmarked) [Example 121, 2-[[2-(dimethylamino)ethyl](methyl)amino]-4-[(9-fluoro-10,11-dihydro-5H-benzo[4,5]cyclohepta[1,2-b]pyridin-5-yl)amino]-6-isopropyl-5,6-dihydro-7H-pyrrolo[3,4-d]pyrimidin-7-one]	150	4580
CC(=O)N1CCN(c2nc(NCc3ccc(OC(F)(F)F)cc3C)c3c(n2)C(=O)N(C(C)C)C3)CC1 [Example 122, 2-(4-acetylpiperazin-1-yl)-6-isopropyl-4-{[2-methyl-4-(trifluoromethoxy)benzyl]amino}-5,6-dihydro-7H-pyrrolo[3,4-d]pyrimidin-7-one]	130	6320
CC(=O)N1CCN(c2nc(NC3(c4ccc(Cl)cc4)CC3)c3c(n2)C(=O)N(C(C)C)C3)CC1 [Example 130]	2300	13300
COc1cccc(C2CCCN2c2nc(N3CCN(C(C)=O)CC3)nc3c2CN(C(C)C)C3=O)c1 (centres unmarked) [Example 131, 2-(4-Acetylpiperazin-1-yl)-6-isopropyl-4-(2-(3-methoxyphenyl)pyrrolidin-1-yl)-5H-pyrrolo[3,4-d]pyrimidin-7(6H)-one]	6000	40000
CC(=O)N1CCN(c2nc3c(c(N4CCCC4c4cccc(Cl)c4)n2)CN(C(C)C)C3=O)CC1 (centres unmarked) [Example 132, 2-(4-Acetylpiperazin-1-yl)-4-(2-(3-chlorophenyl)pyrrolidin-1-yl)-6-isopropyl-5H-pyrrolo[3,4-d]pyrimidin-7(6H)-one]	1400	13300
CC(C)N1Cc2c(NC(C)(C)Cc3ccc(F)cc3)nc(N3CCN4C(=O)CCC4C3)nc2C1=O (centres unmarked) [Example 134, 4-(1-(4-Fluorophenyl)-2-methylpropan-2-ylamino)-6-isopropyl-2-(6-oxohexahydro[1,2-a]pyrazin-2(1H)-yl)-5H-pyrrolo[3,4-d]pyrimidin-7(6H)-one]	490	49800
CC(=O)N1CCN(c2nc(NC(C)(C)Cc3ccc(F)cc3)c3c(n2)C(=O)N(C(C)C)C3)CC1C (centres unmarked) [Example 138, 2-(4-Acetyl-3-methyl-piperazin-1-yl)-4-[2-(4-fluoro-phenyl)-1,1-dimethyl-ethylamino]-6-isopropyl-5,6-dihydro-pyrrolo[3,4-d]pyrimidin-7-one]	750	16200
CC(C)N1Cc2c(NC(C)(C)Cc3ccc(F)cc3)nc(N3CCN4C(=O)OC[C@H]4C3)nc2C1=O [Example 140, (R)-7-{4-[2-(4-Fluoro-phenyl)-1,1-dimethyl-ethylamino]-6-isopropyl-7-oxo-6,7-dihydro-5H-pyrrolo[3,4-d]pyrimidin-2-yl}-hexahydro-oxazolo[3,4-a]pyrazin-3-one]	1100	8470
CC(=O)N1CCN(c2nc(NCc3cnc4ccccc4c3)c3c(n2)C(=O)N(C(C)C)C3)CC1C (centres unmarked) [Example 142, 2-(4-Acetyl-3-methyl-piperazin-1-yl)-6-isopropyl-4-[(quinolin-3-ylmethyl)amino]-5,6-dihydro-pyrrolo[3,4-d]pyrimidin-7-one]	57	7550
CC(=O)N1CCN(c2nc(NCc3cc(-c4ccccc4)on3)c3c(n2)C(=O)N(C(C)C)C3)CC1 [Example 144, 4-(4-acetylpiperazin-1-yl)-2-[(5-phenyl-1,2-oxazol-3-yl)methylamino]-8-propan-2-yl-3,5,8-triazabicyclo[4.3.0]nona-1,3,5-trien-7-one]	45	4800
CC(=O)N1CCN(c2nc(NCc3cnn(-c4ccccc4)c3)c3c(n2)C(=O)N(C(C)C)C3)CC1 [Example 146, 4-(4-acetylpiperazin-1-yl)-2-[(1-phenylpyrazol-4-yl)methylamino]-8-propan-2-yl-3,5,8-triazabicyclo[4.3.0]nona-1,3,5-trien-7-one]	67	2440
CC(=O)N1CCN(c2nc(NCc3cc(-c4ccccc4)no3)c3c(n2)C(=O)N(C(C)C)C3)CC1 [Example 147, 4-(4-acetylpiperazin-1-yl)-2-[(3-phenyl-1,2-oxazol-5-yl)methylamino]-8-propan-2-yl-3,5,8-triazabicyclo[4.3.0]nona-1,3,5-trien-7-one]	41	1230
CC(=O)N1CCN(c2nc(NCc3nnc(-c4ccccc4)o3)c3c(n2)C(=O)N(C(C)C)C3)CC1 [Example 148, 4-(4-acetylpiperazin-1-yl)-2-[(5-phenyl-1,3,4-oxadiazol-2-yl)methylamino]-8-propan-2-yl-3,5,8-triazabicyclo[4.3.0]nona-1,3,5-trien-7-one]	160	6750
CC(=O)N1CCN(c2nc(NC(C)c3cnn(-c4ccccc4F)c3)c3c(n2)C(=O)N(C(C)C)C3)CC1 (centres unmarked) [Example 149, 4-(4-acetylpiperazin-1-yl)-2-[1-[1-(2-fluorophenyl)pyrazol-4-yl]ethylamino]-8-propan-2-yl-3,5,8-triazabicyclo[4.3.0]nona-1,3,5-trien-7-one]	260	5070
CC(=O)N1CCN(c2nc(NC(C)c3cnn(-c4ccccc4)c3)c3c(n2)C(=O)N(C(C)C)C3)CC1 (centres unmarked) [Example 150, 4-(4-acetylpiperazin-1-yl)-2-[1-(1-phenylpyrazol-4-yl)ethylamino]-8-propan-2-yl-3,5,8-triazabicyclo[4.3.0]nona-1,3,5-trien-7-one]	60	237
CCOc1ccc([C@@H](C)Nc2nc(N3CCN(C(C)=O)CC3)nc3c2CN(C(C)C)C3=O)cc1Cl [Example 159, (R)-2-(4-acetylpiperazin-1-yl)-4-(1-(3-chloro-4-ethoxyphenyl)ethylamino)-6-isopropyl-5H-pyrrolo[3,4-d]pyrimidin-7(6H)-one]	37	547
CC(=O)N1CCN(c2nc(NC(C)(C)Cc3ccc(C)cc3)c3c(n2)C(=O)N(C(C)C)C3)CC1 [Example 164, 2-(4-acetylpiperazin-1-yl)-6-isopropyl-4-(2-methyl-1-p-tolylpropan-2-ylamino)-5H-pyrrolo[3,4-d]pyrimidin-7(6H)-one]	56	2910
CC(=O)N1CCN(c2nc(N[C@H](C)c3ccc(I)cc3)c3c(n2)C(=O)N(C(C)C)C3)CC1 [Example 165, (R)-2-(4-acetylpiperazin-1-yl)-4-(1-(4-iodophenyl)ethylamino)-6-isopropyl-5H-pyrrolo[3,4-d]pyrimidin-7(6H)-one]	43	11100

From patent US20090099195A1 (ASTRAZENECA AB, priority 2007, published 2009)
